Consider 32 compounds from patent publication US20110071197A1, “BIS-ARYL COMPOUNDS FOR USE AS MEDICAMENTS” (priority 2008, published 2011).

The target in one assay is T1, Recombinant human LTC4 synthase (Homo sapiens, UniProt Q16873).
T1 construct: made in house; host or cells: Pichia pastoris
T1 sequence (Q16873 1-150): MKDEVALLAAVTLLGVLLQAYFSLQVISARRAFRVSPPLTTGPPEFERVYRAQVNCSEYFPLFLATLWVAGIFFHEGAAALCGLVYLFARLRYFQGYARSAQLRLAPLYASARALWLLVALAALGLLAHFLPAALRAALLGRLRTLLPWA
Nature of the assay: LTC4 synthase in vitro assay (HTRF detection of LTC4). The format is biochemical. The note with it: compound concentration 3 μM; HTRF method. The procedure, abridged:
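Pichia-expressed recombinant human LTC4 synthase at 0.5 μg/ml total protein in PBS pH 7.4 with 5 mM GSH, preincubated 10 min at RT with inhibitor (10 μM final). LTA4 (2.5 μM final) was then added for 5 min at RT. LTC4 formed was read by HTRF.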
Usually inhibition stands for the relative decrease from the control value, in per cent. Take `CCCCOc1ccc(S(=O)(=O)NC(=O)Cc2cccc(Oc3ccc(Nc4ccc(Cl)cc4)c(C(=O)O)c3)c2)cc1` [26:1, 5-{3-[2-(4-Butoxybenzenesulfonyl-amino)-2-oxoethyl]phenoxy}-2-(4-chlorophenylamino)benzoic acid]: the inhibition at 3 µM worked out at 94%.

Staying with this assay, now noted: total concentration of title compound in the assay 10 μM; HTRF method.
Consider `CCCCc1ccc(C(=O)Nc2ccc(Oc3ccc(NS(=O)(=O)c4ccc5c(c4)CNCC5)c(CC(=O)O)c3)cc2)cc1` [17:6, [5-[4-(4-butyl-benzoylamino)-phenoxy]-2-(1,2,3,4-tetrahydro-isoquinoline-7-sulfonylamino)-phenyl]-acetic acid], for which the inhibition at 10 µM stood at 23%.

With `O=C(Nc1ccc(Oc2ccc(NC(=O)c3cc(Cl)ccc3O)cc2)cc1C(=O)O)c1ccc(C(F)(F)F)cc1` [8:3, 5-[4-(5-chloro-2-hydroxybenzoylamino)phenoxy]-2-(4-trifluoro-methylbenzoylamino)-benzoic acid], the “% inh.” value is 96%.

On to `CC(C)Oc1ccc(C(=O)Nc2ccc(Oc3ccc(NC(=O)c4ccccc4)c(C(=O)O)c3)cc2)cc1` [8:13, 2-benzoylamino-5-[4-(4-iso-propoxybenzoylamino)-phenoxy]benzoic acid], for which the inhibition at 10 µM turned out to be 98%.

Turning to `CCCCN(c1ccc(Oc2ccc(Nc3ccc(F)c(F)c3)c(C(=O)O)c2)cc1)c1ccc(F)c(F)c1` [24:1, 5-{4-[n-Butyl-(3,4-difluorophenyl)-amino]phenoxy}-2-(3,4-difluoro-phenylamino)benzoic acid], the inhibition at 10 µM came to 93%.

As to `CCCCOc1ccc(S(=O)(=O)Nc2ccc(Oc3ccc(Nc4ccc(F)c(F)c4)cc3C(=O)O)cc2C(=O)O)cc1` [Example 1:9, 2-(4-butoxybenzenesulfonyl-amino)-5-[4-(2-carboxy)(3,4-di-fluorophenylamino)phenoxy]-benzoic acid], the “% inh.” value turned out to be 100%.

For `O=C(Nc1ccc(Sc2ccc(NS(=O)(=O)c3ccc(Cl)cc3F)c(C(=O)O)c2)cc1)c1ccc(C(F)(F)F)cc1` [Example 35:2, 2-(4-Chloro-2-fluoro-benzenesulfonylamino)-5-[4-(4-trifluoromethylbenzoylamino)-phenylsulfanyl]benzoic acid], the inhibition at 10 µM was 100%.

Regarding `CCCCOc1ccc(S(=O)(=O)Nc2ccc(Oc3ccc(S(=O)(=O)Nc4ccc(F)c(F)c4)cc3)cc2C(=O)O)cc1` [25:3, 2-(4-Butoxybenzenesulfonyl-amino)-5-[4-(3,4-difluorophenyl-sulfamoyl)phenoxy]benzoic acid], the inhibition at 10 µM was found to be 100%.

For `O=C(O)c1cc(Oc2ccc(Nc3cc(C(F)(F)F)ccc3Cl)c(C(=O)O)c2)ccc1Nc1ccc(F)c(F)c1` [1:1, 5-(3-carboxy-4-(2-chloro-5-trifluoromethylphenylamino)-phenyloxy)-2-(3,4-difluoro-phenylamino)benzoic acid], the inhibition at 10 µM amounted to 98%.

As for `O=C(O)c1cc(Oc2cccc(NCc3cccc(Cl)c3F)c2)ccc1NS(=O)(=O)c1ccc(Cl)cc1Cl` [23:5, 5-[3-(3-Chloro-2-fluorobenzylamino)-phenoxy]-2-(2,4-dichlorobenzene-sulfonylamino)benzoic acid], the inhibition at 10 µM was found to be 98%.

Turning to `CCCCOc1ccc(S(=O)(=O)Nc2ccc(Oc3ccc(NC(=O)c4ccccc4)cc3)cc2C(=O)O)cc1` [21:4, 5-(4-benzoylamino-phenoxy)-2-(4-butoxy-benzenesulfonylamino)-benzoic acid], the inhibition at 10 µM turned out to be 100%.

Take `O=C(Nc1ccc(Oc2ccc(NC(=O)c3cccc(Cl)c3)c(C(=O)O)c2)cc1C(=O)O)c1cccc(Cl)c1` [4:4, 5-[3-carboxy-4-(3-chlorobenzamido)phenyloxy]-2-(3-chlorobenzamido)benzoic acid]: the inhibition at 10 µM worked out at 99%.

Regarding `CCCCc1ccc(C(=O)Nc2ccc(Oc3ccc(NC(=O)c4ccccc4)c(C(=O)O)c3)cc2)cc1` [8:12, 2-benzoylamino-5-[4-(4-butyl-benzoylamino)phenoxy]-benzoic acid], the inhibition at 10 µM is 99%.

Turning to `O=C(Nc1ccc(Oc2ccc([N+](=O)[O-])c(C(=O)O)c2)cc1C(=O)O)c1ccccc1` [3:1, 2-benzamido-5-(3-carboxy-4-nitrophenoxy)benzoic acid], the inhibition at 10 µM turned out to be 65%.

For `O=C(O)c1cc(Oc2ccc(Nc3ccc(F)c(F)c3)c(C(=O)O)c2)ccc1Nc1ccc(C(F)(F)F)nc1` [1:5, 5-[3-carboxy-4-(3,4-difluoro-phenylamino)phenyloxy]-2-(6-trifluoromethylpyridin-3-yl-amino)-benzoic acid], the inhibition at 10 µM was 99%.

For `O=C(O)c1cc(Oc2ccc(Nc3ccc(F)cc3)cc2)ccc1Nc1ccc(F)c(F)c1` [Example 12:1, 2-(3,4-difluorophenylamino)-5-(4-(4-fluorophenylamino)-phenoxy)benzoic acid], the inhibition at 10 µM stood at 96%.

For the compound `O=C(O)c1cc(Oc2ccc(Nc3ccc(F)c(F)c3)c(C(=O)O)c2)ccc1Nc1ccc(F)c(F)c1` [1:3, 3,3′-oxybis[6-(3,4-difluorophenyl-amino)benzoic acid]], the inhibition at 10 µM turned out to be 100%.

In the case of `CCCCOc1ccc(S(=O)(=O)Nc2ccc(Oc3cccc(NCc4cccc(OC)c4OC)c3)cc2C(=O)O)cc1` [23:2, 2-(4-Butoxybenzenesulfonylamino)-5-[3-(2,3-dimethoxybenzylamino)-phenoxy]benzoic acid], the inhibition at 10 µM was determined as 99%.

In the case of `O=C(O)c1cc(Oc2ccc(NS(=O)(=O)c3ccc(OC(F)(F)F)cc3)cc2)ccc1NS(=O)(=O)c1ccc(OC(F)(F)F)cc1` [Example 30:3, 2-(4-Trifluoromethoxybenzenesulfonylamino)-5-[4-(4-trifluoromethoxybenzene-sulfonylamino)phenoxy]benzoic acid], the inhibition at 10 µM was found to be 100%.

As to `CCCCc1ccc(C(=O)Nc2ccc(Oc3ccc(NC(=O)c4ccc(Cl)cc4Cl)c(C(=O)O)c3)cc2C(=O)O)cc1` [2:5, 5-[3-carboxy-4-(4-chloro-6-chloro-benzamido)-phenyloxy]-2-(4-butylbenz-amido)benzoic acid], the “% inh.” value was found to be 100%.

For the compound `CCCCc1ccc(S(=O)(=O)N(C)c2ccc(Oc3ccc(NC(=O)c4ccc(Cl)cc4Cl)c(C(=O)O)c3)cc2)cc1` [11:7, 5-{4-[(4-butylbenzenesulfonyl)-methylamino]phenoxy}-2-(2,4-dichlorobenzoylamino)benzoic acid], the inhibition at 10 µM is 100%.

As for `O=C(O)c1cc(Oc2ccc(S(=O)(=O)Nc3ccc(Cl)cc3)cc2)ccc1Nc1ccc(F)c(F)c1` [Example 25:7, 5-[4-(4-Chlorophenylsulfamoyl)-phenoxy]-2-(3,4-difluorophenyl-amino)benzoic acid], the inhibition at 10 µM is 100%.

Take `O=C(Nc1cccc(Oc2ccc(NC(=O)c3ccc(C(F)(F)F)cc3F)c(C(=O)O)c2)c1)c1ccc(C(F)(F)F)cc1` [10:6, 2-(2-fluoro-4-trifluoromethylbenzoyl-amino)-5-[3-(4-trifluoromethylbenzoyl-amino)phenoxy]benzoic acid]: the inhibition at 10 µM was 98%.

Turning to `CN(C(=O)c1ccc(C(F)(F)F)cc1)c1ccc(Oc2ccc(NC(=O)c3ccc(Cl)cc3Cl)c(C(=O)O)c2)cc1` [9:5, 5-(4-((N-methyl)-4-trifluoromethyl-benzamido)phenoxy)-2-(2,4-dichloro-benzamido)benzoic acid], the inhibition at 10 µM came to 98%.

As to `O=C(O)Cc1cc(Oc2ccc(NC(=O)c3ccc(C(F)(F)F)cc3F)c(C(=O)O)c2)ccc1NC(=O)c1cc(F)c(Cl)cc1F` [6:5, 5-[3-carboxy-methyl-4-(4-chloro-2,5-difluoro-benzoylamino)-phenoxy]-2-(2-fluoro-4-trifluoro-methylbenzoylamino)-benzoic acid], the “% inh.” value came to 96%.

On to `CCCCc1ccc(C(=O)Nc2ccc(Oc3ccc(NC(=O)c4ccc(C(F)(F)F)cc4F)cc3)cc2CC(=O)O)cc1` [17:4, {2-(4-butyl-benzoylamino)-5-[4-(2-fluoro-4-trifluoromethyl-benzoylamino)-phenoxy]-phenyl}-acetic acid], for which the inhibition at 10 µM worked out at 79%.

Regarding `CC(C)(C)c1ccc(C(=O)Nc2ccc(Oc3ccc(NC(=O)c4ccc(Cl)cc4Cl)c(C(=O)O)c3)cc2)cc1` [Example 8:1, 5-(4-(4-tert-butylbenzamido)-phenoxy)-2-(2,4-dichlorobenz-amido)benzoic acid], the “% inh.” value is 100%.

Take `O=C(Cc1cccc(Oc2ccc(Nc3ccc(Cl)cc3)c(C(=O)O)c2)c1)NS(=O)(=O)c1ccc(F)c(F)c1` [26:2, 2-(4-Chlorophenylamino)-5-{3-[2-(3,4-difluorobenzenesulfonylamino)-2-oxoethyl]phenoxy}benzoic acid]: the inhibition at 10 µM came to 93%.

Regarding `O=C(Nc1ccc(Sc2ccc(NC(=O)c3cccc(Cl)c3)c(C(=O)O)c2)cc1C(=O)O)c1cccc(Cl)c1` [13:2, 2-(3-chlorobenzamido)-5-((4-(3-chlorobenzamido)-3-carboxyphenyl)sulfanyl)benzoic acid], the inhibition at 10 µM was determined as 100%.

With `CCCCOc1ccc(S(=O)(=O)Nc2ccc(Oc3cccc(CC(=O)NS(=O)(=O)c4ccc(F)c(F)c4)c3)cc2C(=O)O)cc1` [26:4, 2-(4-Butoxybenzenesulfonylamino)-5-{3-[2-(3,4-difluorobenzenesulfonyl-amino)-2-oxoethyl]phenoxy}benzoic acid], the inhibition at 10 µM turned out to be 95%.

On to `CCCCOc1ccc(S(=O)(=O)Nc2ccc(Oc3ccc(NC(=O)c4ccccc4)cc3)cc2/C=C/C(=O)O)cc1` [Example 22:1, (E)-3-[5-(4-Benzoylaminophenoxy)-2-(4-butoxybenzenesulfonylamino)-phenyl]acrylic acid], for which the inhibition at 10 µM was found to be 96%.

In the case of `CC(C)Oc1ccc(C(=O)Nc2ccc(Oc3ccc(N(C)C(=O)c4ccc(C(F)(F)F)cc4)cc3)cc2C(=O)O)cc1` [9:4, 5-(4-((N-methyl)-4-trifluoromethyl-benzamido)phenoxy)-2-(4-isopropoxy-benzamido)benzoic acid], the inhibition at 10 µM was found to be 99%.
